Measurements: US20250082611A1, “DOSING REGIMEN FOR AN NLRP3 INHIBITOR IN THE TREATMENT OF OSTEOARTHRITIS” (Novartis AG, priority 2021, published 2025)
pEC50, pIC50: −log10 of the molar value. Entries after “also recorded” stand apart in the source; their conditions may differ. Like-named read-outs stand apart in the source and are kept apart here.

Assays:
[1] = in vivo
Experimental: (§1) The safety of the treatment period is supported by 13-week GLP toxicology studies in rat and cynomolgus monkey. […] Safety margins for COMPOUND IA dosed at 25 mg b.i.d. based on 13-week GLP toxicology studies: […]

[2] = First-in-human study: plasma pharmacokinetics in healthy subjects; assay type: in vivo; settings: for median lag time: fed; for half-life: read-out: mean t1/2 (converted); for Tmax: read-out: median tmax; for CL renal: urine, read-out: Renal clearance (converted); for dose proportionality of exposure: single doses
Text: The study design comprised of 4 parts: single ascending dose (SAD; Part A), relative bioavailability of tablet formulations (Part B), multiple ascending dose (MAD; Part C), and relative bioavailability and food effect (Part D) (FIG. 2; RF=Reference Formulation (crystalline suspension); T2=Test Formulation 2 (crystalline tablet); T3=Test Formulation 3 (spray-dried dispersion suspension); T4=Test Formulation 4 (encapsulated crystalline tablet)). In each group of Parts A and C, 8 subjects were randomized in a 3:1 ratio to receive Compound IA (6 subjects) or matching placebo (2 subjects).
For Part A, eight cohorts of eight eligible subjects were enrolled. Each subject received a single oral dose of Compound IA (3, 10, 30, 100, 300 mg of crystalline suspension and 100, 300, 600 mg of spray-dried dispersion (SDD) under fasted conditions. As this was a FIH study, two sentinel subjects were dosed first, at least 24 hours before the rest of the cohort was dosed, to assure maximum safety. Part B was skipped because the data from Part A provided for an adequate comparison of crystalline and SDD formulations.
For part C, eligible subjects were enrolled in six different cohorts. […] Subjects were dosed in Part C following review available safety, tolerability and PK data from preceding groups in Part A.
[…] […] Based on these doses, subjects were randomly assigned to 1 of 6 treatment sequences (1 subject per sequence) prepared using Williams design.
In single-dose part, blood samples were collected for determining the concentrations of Compound IA at the following time points relative to dosing on Day 1: at pre-dose and 0.25, 0.5, 0.75, 1, 1.5, 2, 3, 4, 6, 8, 12, 24, 36, and 48 hours post-dose, and at the follow-up visit. In multiple-dose part, relative to dosing on Days 1 and 14, samples were collected at pre-dose and 0.25, 0.5, 0.75, 1, 1.5, 2, 3, 4, 6, 8, and 12 hours post-dose; on Days 2, 4, 7, 9, and 11: at pre-dose; after the last dose on Day 14: at 24 and 36 hours (Day 15), and 48 hours (Day 16) post-dose; and at the follow-up visit.
All data were summarized using descriptive statistics and were listed and summarized in tabular and/or graphical form. Descriptive statistics for all relevant PK parameters included: n, arithmetic mean, standard deviation (SD), coefficient of variation (CV %), minimum, median, maximum, geometric mean, and geometric CV %. For tmax only median, minimum, and maximum are presented. PK parameters were calculated using noncompartmental methods using software Phoenix Version 8.1. Concentrations below the lower limit of quantification (LLOQ) were treated as zero in summary statistics for concentration data only. The linear trapezoidal rule was used for AUC calculation. Regression analysis of the terminal plasma elimination phase for the determination of t1/2 included at least 3 data points after Cmax. Parameters with an adjusted r^2 below 0.80 were flagged but included in the descriptive statistics. The parameters AUC0-inf, % AUCextra, CL/F, and VZ/F with an % AUCextra above 20% were excluded from the descriptive statistics.
In Part A, dose proportionality was explored using a regression power model relating logarithmically (log)-transformed Cmax, AUC0-last, and AUC0-inf to the log-transformed dose level. Point estimates for the intercept and the slope and corresponding 90% confidence intervals (CIs) for the slope were calculated. For Part C, dose proportionality was not explored. In Part D, the relative bioavailability of the Test Formulation (crystalline tablet, SDD and crystalline tablet) versus the Reference Formulation (crystalline suspension), as well as the effect of food, was explored using an analysis of variance (ANOVA) model on the PK data.
For the following treatments, the least-squares geometric mean ratios were presented together with 90% CIs: 100 mg Compound IA tablet fasted over 100 mg Compound IA suspension fasted, and 100 mg Compound IA tablet fed over 100 mg Compound IA tablet fasted.

in vivo = settings: cynomolgus monkey
Experimental: as §1

[3] = system: ex-vivo stimulated IL-1β release in whole blood; experiment: First-in-human study: ex-vivo LPS stimulation of whole blood, IL-1β release (PD); assay type: cell-based
Experimental: To determine the PD response to NLRP3 inhibition, whole blood samples were collected for exploratory PD analysis (Part A and Groups 1-3 of Part C). An ex-vivo stimulation by activating the NLRP3 inflammasome with lipopolysaccharide (LPS) was evaluated compared to control conditions, followed by analysis of blood cell release of the inflammatory marker IL-1β.
Combined individual and mean plots of the individual IL-1β concentrations versus time are presented by treatment. Modeling of Compound IA effects on a corrected, stimulated ex vivo Lipopolysaccharide (LPS) challenge in whole blood included evaluation of the relationship between LPS challenge results by conditionally weighted residual modeling.

[4] = single dose 100 mg, crystalline suspension
[5] = fractional Emax model with Hill coefficient

CC(C)(O)c1ncc([S@](N)(=O)=NC(=O)Nc2c3c(cc4c2CCC4)CCC3)s1 [Compound IA, (R)-N′-((1,2,3,5,6,7-hexahydro-s-indacen-4-yl)carbamoyl)-2-(2-hydroxypropan-2-yl) thiazole-5-sulfonimidamide]
Exposure multiples RAT NOAEL based on AUC0-24 h [1]: 14
Exposure multiples RAT NOAEL based on Cmax [1]: 34
Exposure multiples RAT NOAEL based on AUC0-24 h ([1]; 25 mg): 7
Exposure multiples RAT NOAEL based on Cmax ([1]; 25 mg): 17
increase of AUC, fed (high-fat, high-calorie meal) vs fasted ([2]; 100 mg crystalline tablet): 1.49 fold
increase of Cmax, fed (high-fat, high-calorie meal) vs fasted ([2]; 100 mg crystalline tablet): 2.05 fold
Cmax lower for crystalline tablet than suspension ([2]; 100 mg, fasted): 78%
multiple dose PK ([2]; after 2 weeks, multiple doses and formulations): linear
absorption of crystalline material ([2]; doses≥100 mg): solubility-limited absorption
median lag time ([2]; encapsulated crystalline tablets 25 mg bid): 0.75 h
median lag time ([2]; encapsulated crystalline tablets 50 mg bid): 0.25 h
AUCs of subjects with heterogenous CYP2C9 genotypes versus normal CYP2C9 activity ([2]; human, in vivo): higher
oral clearance relative to human liver blood flow ([2]; human, in vivo, po): ≤ 2%
renal elimination as share of oral dose ([2]; human, in vivo, po): less than 0.8%
half-life ([2]; human, plasma, oral, 100 mg, suspension formulation): 17.7 h
half-life ([2]; human, plasma, oral, across QD and BID dose levels): 9.83 to 16.2 h
Vd/F ([2]; human, plasma, oral, steady state, across QD and BID dose levels, read-out: Vss/F): 12.6 to 23.3 L
Tmax ([2]; human, plasma, po, single oral doses 30-600 mg, fasted): 1.5 to 3 h
Tmax ([2]; human, plasma, po, single oral doses of suspensions, fasted, across dose levels): 0.76 to 3 h
CL renal ([2]; human, oral, Day 1): ~0.0667 mL/min
CL renal ([2]; human, oral, steady state (Day 14)): ~0.133 mL/min
drug accumulation in reaching steady state ([2]; once daily dosing): about 1.2 fold
increase of AUC0-last, fed compared to fasted [2, 4]: 1.49 fold
increase of Cmax, fed compared to fasted [2, 4]: 2.05 fold
dose proportionality of exposure ([2]; SDD suspension 100-600 mg, fasted): dose-proportionally; also recorded: dose-proportional increase
dose proportionality of exposure ([2]; crystalline suspension 3-300 mg, fasted): less than dose-proportional
median tmax ([2]; single oral doses of suspensions, fasted, across dose levels): 0.76 to 3.0 h
CLss/F ([2]; steady state, across QD and BID dose levels): ~1.0 L/h
drug accumulation in reaching steady state ([2]; twice daily dosing): 2 fold
Exposure multiples MONKEY NOAEL based on AUC0-24 h (in vivo): 49
Exposure multiples MONKEY NOAEL based on Cmax (in vivo): 66
NOAEL at 13 weeks (in vivo): 150 mg/kg/day
Exposure multiples MONKEY NOAEL based on AUC0-24 h (in vivo; 25 mg): 61
Exposure multiples MONKEY NOAEL based on Cmax (in vivo; 25 mg): 82
IC90 ([3]; Homo sapiens, LPS challenge, median, 90% CI 2.84, 3.54, read-out: IC90, inhibiting 90% of ex-vivo stimulated IL-1β release): 3180 nM
pIC50 ([3]; Homo sapiens, relative to 100% inhibition, 90% CI 0.118, 0.179): 6.84
pEC50 ([3]; Homo sapiens, relative to estimated maximum effect, 90% CI 0.114, 0.171): 6.85
EC90 ([3]; Homo sapiens, relative to estimated maximum effect, 90% CI 2.24, 2.94): 2570 nM
Emax of IL-1β, arithmetic mean (±SD) [3, 5]: −0.985 (±0.00277)
observed stimulation effect of IL-1β, arithmetic mean (±SD) [3, 5]: 1820 (±102) ng/L
time after dosing from which inhibition of IL-1β was observed ([3]; most dose levels): 1 h
concentrations of IL-1β with increasing doses ([3]; single and multiple oral doses): dose-dependent decreases
